{
  "source": "BindingDB's records for doi:10.1016/j.bmcl.2004.07.023",
  "about": "(North Dakota State University, 2004)",
  "target": "T1, Interstitial collagenase (Homo sapiens, UniProt P03956)",
  "T1 sequence (P03956 whole entry)": "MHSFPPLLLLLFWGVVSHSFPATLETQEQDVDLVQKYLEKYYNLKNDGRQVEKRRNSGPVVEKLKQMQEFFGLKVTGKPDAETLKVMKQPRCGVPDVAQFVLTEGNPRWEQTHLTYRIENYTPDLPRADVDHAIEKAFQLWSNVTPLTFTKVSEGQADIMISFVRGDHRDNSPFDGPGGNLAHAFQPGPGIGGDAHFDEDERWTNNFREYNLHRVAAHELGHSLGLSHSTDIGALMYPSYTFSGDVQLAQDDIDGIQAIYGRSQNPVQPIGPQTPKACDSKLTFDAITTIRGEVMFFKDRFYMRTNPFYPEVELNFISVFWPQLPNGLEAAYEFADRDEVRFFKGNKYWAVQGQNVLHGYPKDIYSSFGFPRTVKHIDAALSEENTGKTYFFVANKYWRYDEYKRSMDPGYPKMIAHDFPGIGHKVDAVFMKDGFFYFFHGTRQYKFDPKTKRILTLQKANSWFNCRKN",
  "test": "Inhibitory activity against matrix metalloprotease-1; No activity upto solubility limit",
  "data": [
    {"smiles": "C=C[C@@H]1OC(c2ccc(Br)cc2)=N[C@H]1Sc1ccccc1", "note": "[(4S,5S)-2-(4-Bromo-phenyl)-4-phenylsulfanyl-5-vinyl-4,5-dihydro-oxazole]", "values": [
      {"measurement": "Ki", "value": "> 30", "unit": "µM"}
    ]}
  ]
}
